Results published in ChEMBL document CHEMBL1781925, “HCV-NS3/4A protease inhibitory iridoid glucosides and dimeric foliamenthoic acid derivatives from Anarrhinum orientale” (J Nat Prod, 2011).

Assays:
[1] = target: Trypsin (Homo sapiens, UniProt P07477+P07478+P35030); assay: Inhibition of human trypsin using hilyte fuor 488-labeled casein as substrate after 30 mins by green protease fluorometric assay; assay type: protein assay
[2] = Inhibition of Hepatitis C virus NS3/4A protease using Ac-Asp-Glu-Dap (QXLTM520)-Glu-Glu-Abu-COO-Ala-Ser-Cys(5-FAMsp)-NH2 as substrate after 30 mins by fluorometric assay; parameters: species or system Hepacivirus hominis

SMILES	IC50 [1]	IC50 [2]
C[C@]1(O[C@@H]2O[C@H](COC(=O)/C=C/c3ccccc3)[C@@H](O)[C@H](O)[C@H]2O)CC[C@@H]2C(C(=O)O)=CO[C@@H](O[C@@H]3O[C@H](COC(=O)/C=C/c4ccccc4)[C@@H](O)[C@H](O)[C@H]3O)[C@@H]21	> 200 µM	125 µM
C/C(=C\CO)CC/C=C(\C)C(=O)OC/C=C(\C)CC/C=C(\C)C(=O)O	> 200 µM	126 µM
CC(=O)OC/C=C(\C)CC/C=C(\C)C(=O)OC/C=C(\C)CC/C=C(\C)C(=O)O	–	> 200 µM

Further compounds by falling IC50 [2], results first:

IC50 [1]	IC50 [2]	SMILES
> 200 µM	109 µM	C[C@]1(OC(=O)/C=C/c2ccccc2)CC[C@@H]2C(C(=O)O)=CO[C@@H](O[C@@H]3O[C@H](CO)[C@@H](O)[C@H](O)[C@H]3O)[C@@H]21
> 200 µM	100 µM	C[C@]1(O)CC[C@@H]2C(C(=O)O)=CO[C@@H](O[C@@H]3O[C@H](COC(=O)/C=C/c4ccccc4)[C@@H](O)[C@H](O)[C@H]3O)[C@@H]21
